Earlier results in patent US8263645B2, “Disodium cromoglycate compositions and methods for administering same” (PARI Pharma GmbH, priority 2006, dated 2012).
Where two headings read alike, the source gives them in different places.

Columns and labels:
[1] = timed urine collections
[2] = tested on: intermediate conductance chloride channels; details: channels activated following immunological stimulation
[3] = tested on: rat mast cells

lung deposition ([1]; 20 mg DSCG via Acron nebulizer (MMD=4.5 μm)): 1.5%
lung deposition ([1]; 20 mg DSCG via pMDI): 0.3%
Compound: O=C([O-])c1cc(=O)c2c(OCC(O)COc3cccc4oc(C(=O)[O-])cc(=O)c34)cccc2o1.[Na+].[Na+] [DSCG, disodium cromoglycate]
chloride channel block [2]: block intermediate conductance chloride channels
histamine release ([3]; following antigen challenge): inhibition of histamine release
influx of calcium ions ([3]; rat mast cells): inhibited the influx of calcium ions
